Measured values from patent US20100144675A1, “Regulation of sGC Function by Corrin Derivatives” (priority 2007, published 2010).
Blank lines part the entries; values can stand above or below the molecule they belong to.

Experiments:
anesthetized rats = assay: Blood pressure (MAP) and cardiac output in instrumented anesthetized rats; format: in vivo, Sprague Dawley rats; conditions: for change in blood pressure after bolus: 500 μl bolus into abdominal aorta, fB at 5 and 15 mg/ml or 100 μg/kg BAY41-2272; for change in cardiac output after bolus: 500 μl bolus, data not shown
Method: FIG. 6. Effect of factor B and BAY41-2272 on mean arterial pressure (MAP) in instrumented anesthetized rats. Indicated amount of drugs were delivered as a 500 μl bolus through a catheter into the abdominal aorta and MAP were recorded as described in section D1.2. “Contr”—500 μl of saline,
Effect of factor B and BAY41-2272 on blood pressure of anesthetized rats. We also measured the effect of bolus application of fB on changes in hemodynamic parameters in anesthetized rats. Sprague Dawley rats were surgically implanted with a 10-MHz pulsed Doppler flow and a displacement probe around the ascending aorta and sutured to the left ventricular wall, respectively. A Tygon catheter was placed into the abdominal aorta via the femoral artery. After recovery the animals were anesthetized with halothane, intubated, and ventilated under isothermic conditions. Changes in systolic, diastolic, mean arterial pressures and cardiac output were recorded and processed with a multichannel-pulsed Doppler flow/dimension system and digitized (A/D converter). Before experimental treatments with fB and/or BAY41-2272 the animals were treated with a bolus of 30 μg/kg of sodium nitroprusside to confirm the integrity of the catheter and delivery system and the responsiveness of animals to drugs. After the baseline was established a 500 μl bolus of fB at 5 and 15 mg/ml or 100 μg/kg of BAY41-2272 (Alexis, San Diego, Calif., USA) was delivered and the changes in blood pressure (FIG. 6A). and cardiac output were recorded (data not shown).

[1] = target: T1, recombinant human α1/β1 sGC (Homo sapiens, UniProt Q02108+Q02153); assay: cGMP production by purified recombinant sGC (activation by tetrapyrroles); format: biochemical; conditions: for shift of EC50 of sGC activation in the combination: FIG. 4D/4E; for concentration at which sGC activation is maximal (dose response): dose response of corrins, FIG. 4C
T1 construct: made in house
T1 sequence (Q02108 1-690): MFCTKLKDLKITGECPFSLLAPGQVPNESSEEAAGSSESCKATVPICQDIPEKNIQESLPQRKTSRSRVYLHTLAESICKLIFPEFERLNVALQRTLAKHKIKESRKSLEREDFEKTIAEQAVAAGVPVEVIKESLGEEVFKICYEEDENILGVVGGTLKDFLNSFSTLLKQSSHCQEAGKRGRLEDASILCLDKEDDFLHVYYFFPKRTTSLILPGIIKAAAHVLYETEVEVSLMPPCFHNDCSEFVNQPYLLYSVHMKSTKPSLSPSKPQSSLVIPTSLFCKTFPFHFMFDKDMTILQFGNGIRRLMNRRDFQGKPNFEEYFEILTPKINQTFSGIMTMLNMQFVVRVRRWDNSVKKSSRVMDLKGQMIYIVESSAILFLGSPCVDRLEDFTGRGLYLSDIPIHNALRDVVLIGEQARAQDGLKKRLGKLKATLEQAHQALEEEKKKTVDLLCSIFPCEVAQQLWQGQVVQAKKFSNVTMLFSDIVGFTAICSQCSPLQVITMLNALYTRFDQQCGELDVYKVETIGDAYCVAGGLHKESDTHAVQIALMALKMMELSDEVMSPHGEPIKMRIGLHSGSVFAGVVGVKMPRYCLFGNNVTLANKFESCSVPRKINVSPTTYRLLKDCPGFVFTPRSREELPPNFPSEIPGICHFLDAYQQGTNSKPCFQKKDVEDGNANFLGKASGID
T1 sequence (Q02153 1-619): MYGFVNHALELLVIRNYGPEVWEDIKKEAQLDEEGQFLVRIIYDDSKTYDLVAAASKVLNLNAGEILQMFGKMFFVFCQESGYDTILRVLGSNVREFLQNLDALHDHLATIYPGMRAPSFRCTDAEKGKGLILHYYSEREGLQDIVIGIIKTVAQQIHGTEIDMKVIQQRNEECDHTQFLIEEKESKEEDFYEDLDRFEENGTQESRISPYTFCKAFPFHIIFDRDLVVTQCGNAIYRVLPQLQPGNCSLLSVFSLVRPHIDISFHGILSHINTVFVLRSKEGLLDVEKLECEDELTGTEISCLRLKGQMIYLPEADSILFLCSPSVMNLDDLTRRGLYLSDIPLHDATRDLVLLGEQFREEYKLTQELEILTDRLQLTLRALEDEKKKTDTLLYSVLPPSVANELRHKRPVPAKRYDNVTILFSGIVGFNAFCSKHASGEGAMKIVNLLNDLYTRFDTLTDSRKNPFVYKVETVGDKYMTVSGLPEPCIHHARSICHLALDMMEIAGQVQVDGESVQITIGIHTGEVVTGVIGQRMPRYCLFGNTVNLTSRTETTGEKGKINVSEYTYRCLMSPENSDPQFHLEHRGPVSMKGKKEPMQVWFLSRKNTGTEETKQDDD
Method: FIG. 4. Effect of tetrapyrroles on sGC activity in vitro. A. cGMP production by recombinant human α1/β1 sGC induced by 50 μM factor B, bilirubin, nitrite ionophore 1, uroporphyrin I, or protoporphyrin IX. B. cGMP production by recombinant human α1/β1 sGC induced by 50 μM factor B, bilirubin, nitrite ionophore 1, uroporphyrin I, or protoporphyrin IX alone or in the presence of 1 μM BAY41-2272 or HMR1766. C. cGMP production by recombinant al (31 sGC in response to increasing concentration of protoporphyrin, factor B, vitamin B12 and vitamin B12a. D. cGMP production by recombinant human al/131 sGC induced by various doses of factor B at various doses of BAY41-2272. E. cGMP production by recombinant human α1/β1 sGC induced by various doses of factor B at various doses of BAY41-2272.
Activation of purified sGC by various tetrapyrroles. […] Methods of recombinant expression and purification of human α1/β11 isoform of sGC have been developed^23, 24. Measurements of enzymatic activity and multiple spectral studies performed using this recombinant enzyme^10, 23, 25 indicate that these recombinant preparations have identical properties as the native enzyme. We tested a series of tetrapyrrole compounds (FIG. 3), which are structurally related to PPIX. Similar to PPIX, majority of the tested tetrapyrroles contain four pyrrole rings connected to form a microcycle. In the case of billirubin, however, the microcycle is interrupted. […] We then compared fB with vitamin B12 (cyanocobalamine) or its derivative B12a (aquacobalamine) and PPIX, all at 50 μM. […] HMR1766 was kindly provided by Sanofi-Avantis (see a letter attached).

sGC = conditions: cited from earlier work
rat aortic rings [2] = assay: cGMP levels in treated rat aortic rings; format: cell-based; conditions: 5 minutes incubation, 37° C., in combination with BAY 41-2272
Method: FIG. 7. Changes in cGMP levels in rat aortic rings. Aortic rings were incubated with saline or saline with factor B in the presence or absence of BAY 41-2272 for 5 minutes at 37° C. cGMP was extracted and quantified.
Changes in cGMP levels in isolated rat aorta treated with factor B and BAY 41-2272. In order to confirm that relaxation of blood vessels and decreased blood pressure in response to factor B is dependent on sGC activity we measured cGMP levels in treated aortic rings.

rat aortic rings [3] = assay: Relaxation of phenylephrine-preconstricted isolated rat aortic rings; format: cell-based, Sprague Dawley rats; conditions: for vascular relaxation of preconstricted aortic rings: 1 μM phenylephrine preconstriction, cumulative addition
Method: FIG. 5. Synergistic effect of corrin derivatives and BAY41-2272 on relaxation of rat aortic rings. The measurements were performed in the presence of corrin derivatives±BAY41-2272 as described in the text. Data are average of two aortic rings per each dose-response curve. Arrow indicates the shift in the effective dose and increased response.
FB-dependent relaxation of isolated rat aorta. In addition to in vitro analysis of sGC activity, we tested whether fB and vitamin B12 derivatives will induce relaxation of preconstricted rat aortic rings. The descending thoracic aorta was excised from freshly sacrificed Sprague Dawley rats, cleaned of adherent tissue and cut into 3-4 mm rings. Each ring was suspended between two wires hooks and mounted under 1 mN of passive tension in 4 ml organ chambers filled with Krebs' solution at 37° C., pH 7.4 and continuously aerated with 95% O2/5% CO2. The changes in isometric tension were measured by a force transducer (Grass Instruments, USA) connected to a PowerLab 400™ data-acquisition system (ADInstruments, Colorado Springs, Mass., USA). Ring preparations were equilibrated for 1 h before the start of the experiments. After the equilibration period, rings were preconstricted with 1 μM phenylephrine and maximal contractile response is determined. After maximal constriction the agonists (vitamin B12, methyl-B12, fB, BAY41-2272) were added cumulatively and changes in isometric tension determined. […] In the presence of a low dose of BAY41-2272 (0.1 μM) EC50 of fB decreased while the response increased.

[4] = combination of BAY41-2272 and fB
[5] = fB together with 100 μg/kg BAY41-2272, FIG. 6B
[6] = in the presence of 0.1 μM BAY41-2272

Molecule: Nc1nc(-c2nn(Cc3ccccc3F)c3ncccc23)nc(N)c1N1CCOCC1 [BAY41-2272, reference compound]
MAP after administration (anesthetized rats; 100 μg/kg BAY41-2272 alone): stabilize their MAP at lower values | time lower MAP is maintained (anesthetized rats; 100 μg/kg BAY41-2272 alone): at least 30 minutes | change in blood pressure after bolus (anesthetized rats): Transient decreased in blood pressure | change in cardiac output after bolus (anesthetized rats): increased cardiac output | shift of EC50 of sGC activation in the combination [1, 4]: shifted the EC50 to lower concentrations

Molecule: [C-]#[O+] [CO, carbon monoxide]
cGMP produced compared to the resting enzyme (sGC; low-output state): 3-4 time

Molecule: [N]=O [NO, nitric oxide]
increase in rate of cGMP production (sGC; high-output state): > 100 fold

Molecule: C/C1=C2/[N-]C([C@H](CC(N)=O)[C@@]2(C)CCC(=O)NCC(C)O)[C@]2(C)N=C(/C(C)=C3N=C(/C=C4N=C1[C@@H](CCC(N)=O)C\4(C)C)[C@@H](CCC(N)=O)[C@]\3(C)CC(N)=O)[C@@H](CCC(N)=O)[C@]2(C)CC(N)=O.[C-]#N.[C-]#N.[Co] (some centres unmarked) [factor B, dicyanocobinamide]
levels of cGMP in aortic rings (rat aortic rings [2]): increased | change in blood pressure after bolus (anesthetized rats): Transient decreased in blood pressure | change in cardiac output after bolus (anesthetized rats): increased cardiac output | baseline to which MAP was restored, versus BAY41-2272 alone (anesthetized rats; combined fB/BAY41-2272 treatment, FIG. 6B): even lower and more prolonged | amplitude of drop in blood pressure (anesthetized rats; [5]): enhanced the amplitude of BAY41-2272-induced drop in blood pressure | time of acutely decreased blood pressure (anesthetized rats; [5]): significantly prolonged | vascular relaxation of preconstricted aortic rings (rat aortic rings [3]): can induce vascular relaxation | EC50 of aortic ring relaxation (rat aortic rings [3]; [6]): decreased | relaxation response (rat aortic rings [3]; [6]): increased | sGC activation in combination with HMR1766, FIG. 4B ([1]; 50 μM with 1 μM HMR1766): even more effective than PPIX/HMR1766 | sGC activation compared with vitamin B12, B12a and PPIX, FIG. 4B ([1]; all at 50 μM): effective activator of sGC | sGC activation by the combination (synergy) [1, 4]: synergistically enhanced the enzyme | shift of EC50 of sGC activation in the combination [1, 4]: shifted the EC50 to lower concentrations | concentration at which sGC activation is maximal (dose response) [1]: did not reach maximum in the tested range of concentrations | sGC activation (cGMP production), FIG. 4A ([1]; tetrapyrrole alone at 50 μM): significantly activated sGC

Molecule: C/C1=C2/[N-][C@H]([C@H](CC(N)=O)[C@@]2(C)CCC(=O)NC[C@H](C)OP(=O)([O-])O[C@H]2[C@@H](O)[C@@H](n3cnc4cc(C)c(C)cc43)O[C@@H]2CO)[C@]2(C)N=C(/C(C)=C3N=C(/C=C4N=C1[C@@H](CCC(N)=O)C\4(C)C)[C@@H](CCC(N)=O)[C@]\3(C)CC(N)=O)[C@@H](CCC(N)=O)[C@]2(C)CC(N)=O.[CH3-].[Co+3] [methyl-B12, methylcobalamin, reference compound]
vascular relaxation of preconstricted aortic rings (rat aortic rings [3]): can induce vascular relaxation

concentration at which sGC activation is maximal (dose response) [1]: 50 µM
Molecule: C/C1=C2/[N-][C@H]([C@H](CC(N)=O)[C@@]2(C)CCC(=O)NC[C@@H](C)OP(=O)([O-])OC2C(O)[C@@H](n3cnc4cc(C)c(C)cc43)O[C@H]2CO)[C@]2(C)N=C(/C(C)=C3N=C(/C=C4N=C1[C@@H](CCC(N)=O)C\4(C)C)[C@@H](CCC(N)=O)[C@]\3(C)CC(N)=O)[C@@H](CCC(N)=O)[C@]2(C)CC(N)=O.O.[Co+2] (some centres unmarked) [vitamin B12a, aquacobalamine, reference compound]

concentration at which sGC activation is maximal (dose response) [1]: 50 µM
Molecule: cyanocobalamin [vitamin B12, reference compound]
vascular relaxation of preconstricted aortic rings (rat aortic rings [3]): can induce vascular relaxation
